Values quoted from earlier work, collected in publication PMC6318274, “Lattice engineering enables definition of molecular features allowing for potent small-molecule inhibition of HIV-1 entry” (Nature Communications, 2019).
pIC50: −log10 of the molar value. Where two headings read alike, the source gives them in different places.

Test system: HIV-1 Env-pseudoviruses (208-strain panel)
Conditions: cited from earlier work

COc1cnc(-n2cnc(C)n2)c2[nH]cc(C(=O)C(=O)N3CCN(C(=O)c4ccccc4)CC3)c12 [BMS-626529]
pIC50 (45_01dG5, clade B, read-out: IC50): 9.40
pIC50 (0077.v1.c16, clade C, read-out: IC50): 8.70
pIC50 (89.6.DG, clade B, read-out: IC50): 8.70
pIC50 (96ZM651.02, clade C, read-out: IC50): 8.40
pIC50 (208-strain panel, read-out: Geometric mean IC50): 7.80
pIC50 (208-strain panel, read-out: Median IC50): 8.05
pIC50 (235-47, clade AG, read-out: IC50): 9.00
pIC50 (242-14, clade AG, read-out: IC50): 7.64
pIC50 (246-F3.C10.2, clade AC, read-out: IC50): 6.70
pIC50 (247-23, clade D, read-out: IC50): 7.96
pIC50 (0260.v5.c36, clade A, read-out: IC50): 7.54
pIC50 (263-8, clade AG, read-out: IC50): 8.70
pIC50 (269-12, clade AG, read-out: IC50): 4.82
pIC50 (271-11, clade AG, read-out: IC50): < 4.70
pIC50 (286.36, clade C, read-out: IC50): 9.00
pIC50 (288.38, clade C, read-out: IC50): 8.52
pIC50 (0330.v4.c3, clade A, read-out: IC50): 7.01
pIC50 (398-F1.F6.20, clade A, read-out: IC50): 6.43
pIC50 (426c, clade C, read-out: IC50): 7.52
pIC50 (0439.v5.c1, clade A, read-out: IC50): 8.05
pIC50 (0815.v3.c3, clade ACD, read-out: IC50): 8.70
pIC50 (00836-2.5, clade C, read-out: IC50): < 4.70
pIC50 (0921.v2.c14, clade C, read-out: IC50): 9.05
pIC50 (928-28, clade AG, read-out: IC50): 5.68
pIC50 (001428-2.42, clade C, read-out: IC50): 7.31
pIC50 (3016.v5.c45, clade D, read-out: IC50): 9.30
pIC50 (3168.v4.c10, clade C, read-out: IC50): 9.00
pIC50 (3301.v1.c24, clade AC, read-out: IC50): 7.82
pIC50 (3326.v4.c3, clade CD, read-out: IC50): 9.52
pIC50 (3337.v2.c6, clade CD, read-out: IC50): 9.00
pIC50 (3365.v2.c20, clade A, read-out: IC50): 5.72
pIC50 (3415.v1.c1, clade A, read-out: IC50): 8.30
pIC50 (3468.v1.c12, clade AD, read-out: IC50): 8.15
pIC50 (3589.v1.c4, clade AC, read-out: IC50): 9.00
pIC50 (3637.v5.c3, clade C, read-out: IC50): 9.00
pIC50 (3718.v3.c11, clade A, read-out: IC50): 8.00
pIC50 (3817.v2.c59, clade CD, read-out: IC50): 7.32
pIC50 (3873.v1.c24, clade C, read-out: IC50): 9.22
pIC50 (3988.25, clade B, read-out: IC50): 9.00
pIC50 (5768.04, clade B, read-out: IC50): 8.52
pIC50 (6095.v1.c10, clade ACD, read-out: IC50): 9.00
pIC50 (6101.10, clade B, read-out: IC50): 9.00
pIC50 (6322.v4.c1, clade C, read-out: IC50): 7.04
pIC50 (6405.v4.c34, clade D, read-out: IC50): 5.61
pIC50 (6471.v1.c16, clade C, read-out: IC50): 8.70
pIC50 (6535.3, clade B, read-out: IC50): 9.52
pIC50 (6540.v4.c1, clade AC, read-out: IC50): 7.39
pIC50 (6545.v4.c1, clade AC, read-out: IC50): 7.49
pIC50 (6631.v3.c10, clade C, read-out: IC50): 8.52
pIC50 (6644.v2.c33, clade C, read-out: IC50): 7.15
pIC50 (6785.v5.c14, clade C, read-out: IC50): 6.53
pIC50 (6838.v1.c35, clade C, read-out: IC50): 7.72
pIC50 (7165.18, clade B, read-out: IC50): 7.54
pIC50 (0013095-2.11, clade C, read-out: IC50): 8.30
pIC50 (16055-2.3, clade C, read-out: IC50): 8.52
pIC50 (16845-2.22, clade C, read-out: IC50): 9.00
pIC50 (16936-2.21, clade C, read-out: IC50): 8.22
pIC50 (25710-2.43, clade C, read-out: IC50): 8.70
pIC50 (25711-2.4, clade C, read-out: IC50): 7.89
pIC50 (25925-2.22, clade C, read-out: IC50): 8.70
pIC50 (26191-2.48, clade C, read-out: IC50): 8.70
pIC50 (57128.vrc15, clade D, read-out: IC50): 8.22
pIC50 (191821.E6.1, clade D, read-out: IC50): 9.10
pIC50 (231965.c01, clade D, read-out: IC50): 9.00
pIC50 (620345.c1, clade AE, read-out: IC50): 5.38
pIC50 (A07412M1.vrc12, clade D, read-out: IC50): 8.10
pIC50 (AC10.29, clade B, read-out: IC50): 8.52
pIC50 (ADA.DG, clade B, read-out: IC50): 8.52
pIC50 (BB201.B42, clade A, read-out: IC50): 6.62
pIC50 (BB539.2B13, clade A, read-out: IC50): 8.15
pIC50 (BG1168.01, clade B, read-out: IC50): 7.89
pIC50 (BI369.9A, clade A, read-out: IC50): 8.22
pIC50 (BJOX002000.03.2, clade BC, read-out: IC50): 8.30
pIC50 (BJOX009000.02.4, clade AE, read-out: IC50): 5.29
pIC50 (BJOX010000.06.2, clade AE, read-out: IC50): < 4.70
pIC50 (BJOX025000.01.1, clade AE, read-out: IC50): < 4.70
pIC50 (BJOX028000.10.3, clade AE, read-out: IC50): < 4.70
pIC50 (BL01.DG, clade B, read-out: IC50): < 4.70
pIC50 (BR07.DG, clade B, read-out: IC50): 6.10
pIC50 (BR025.9, clade C, read-out: IC50): < 4.70
pIC50 (BS208.B1, clade A, read-out: IC50): 7.77
pIC50 (BX08.16, clade B, read-out: IC50): 8.70
pIC50 (BaL.26, clade B, read-out: IC50): 9.10
pIC50 (Bal.01, clade B, read-out: IC50): 9.00
pIC50 (C1080.c3, clade AE, read-out: IC50): < 4.70
pIC50 (C2101.c1, clade AE, read-out: IC50): < 4.70
pIC50 (C3347.c11, clade AE, read-out: IC50): 4.74
pIC50 (C4118.09, clade AE, read-out: IC50): 5.39
pIC50 (CAAN.A2, clade B, read-out: IC50): 9.00
pIC50 (CAP45.G3, clade C, read-out: IC50): 7.49
pIC50 (CAP210.E8, clade C, read-out: IC50): 7.11
pIC50 (CAP244.D3, clade C, read-out: IC50): 8.15
pIC50 (CE703010217.B6, clade C, read-out: IC50): 8.70
pIC50 (CH038.12, clade BC, read-out: IC50): 6.48
pIC50 (CH070.1, clade BC, read-out: IC50): 7.64
pIC50 (CH117.4, clade BC, read-out: IC50): 7.59
pIC50 (CH119.10, clade BC, read-out: IC50): 8.40
pIC50 (CH181.12, clade BC, read-out: IC50): 9.00
pIC50 (CM244.ec1, clade AE, read-out: IC50): < 4.70
pIC50 (CNE3, clade AE, read-out: IC50): 5.07
pIC50 (CNE4, clade B, read-out: IC50): < 4.70
pIC50 (CNE5, clade AE, read-out: IC50): 4.90
pIC50 (CNE7, clade BC, read-out: IC50): 7.89
pIC50 (CNE8, clade AE, read-out: IC50): < 4.70
pIC50 (CNE10, clade B, read-out: IC50): 9.30
pIC50 (CNE12, clade B, read-out: IC50): 9.00
pIC50 (CNE14, clade B, read-out: IC50): 6.64
pIC50 (CNE15, clade BC, read-out: IC50): 9.05
pIC50 (CNE19, clade BC, read-out: IC50): 8.70
